Assay results taken from US20150051278A1, “METHOD OF EXTERMINATING HARMFUL INSECT” (KAO CORPORATION, priority 2012, published 2015).

Tests used:
Format in all cases: in vivo
Kanzawa spider mite = test: Acaricidal test; conditions: Kanzawa spider mite on kidney bean, 3 days after spraying
Protocol: A kidney bean was grown in a 12 cm pot until to be a 5-leaf stage. Thirty individuals of Kanzawa spider mite per one plant were implanted for three repetitions. To 1 L of water, the insecticide was mixed such that the concentration of each of the compounds at the time of spraying becomes the amount indicated in Table 4 and Table 6, thereby preparing the spray liquid of insecticide. This spray liquid was sprayed on the leaf surface of the kidney bean attached with Kanzawa spider mites in the application amount indicated in Table 4 and Table 6. After air drying, the kidney bean sprayed with the spray liquid was covered with a wire gauze cylinder. Three days later, the number of surviving mites was measured, and the mite killing rate was calculated by the following equation. It means that the effect of agricultural chemical (acaricidal effect) is high as the value of the mite killing rate is high. Mite killing rate (%)=(the number of surviving mites in non-treated area−the number of surviving mites in treated area)/the number of surviving mites in non-treated area×100

cotton aphid = test: Insecticidal test II; conditions: cotton aphid on cabbage leaf, 1 day after spraying
Protocol: A cabbage seedling was grown in a 12 cm pot until to be a ten-leaf stage. The leaf of cabbage was cut and placed in a petri dish with a diameter of 9 cm, and 15 individuals of cotton aphid were trial cultured for three repetitions. With 1 L of water, the insecticide was mixed in such an amount that the concentration of each of the compounds at the time of spraying was the amount indicated in Table 4, thereby preparing the spray liquid of insecticide. This spray liquid was sprayed to the leaf surface of the cabbage attached with cotton aphids in the application amount indicated in Table 4. After air drying, the petri dish was covered with a lid, and an oxygen permeable seal was sealed around the petri dish so as to prevent the escape of the aphid therefrom. One day later, the number of surviving insects was measured, and the insect killing rate (indicated as the “insect killing rate II” in Table 4) was calculated by the following equation. It means that the effect of agricultural chemical (insecticidal effect) is high as the value of the insect killing rate is high. Insect killing rate (%)=(the number of surviving insects in non-treated area−the number of surviving insects in treated area)/the number of surviving insects in non-treated area×100

planthopper = test: Insecticidal test I; conditions: planthopper on rice seedling, 3 days after spraying
Protocol: A seedling of rice plant was grown in a 12 cm pot until the plant height reaches 15 cm. Ten individuals of planthopper, which had passed 3 to 5 days after emergence, were applied per one rice plant. The rice plant was trial-cultured for three repetitions. With 1 L of water, an insecticide was mixed in such an amount that the concentration of each of the compounds at the time of spraying was the amount indicated in Table 4, thereby preparing the spray liquid of insecticide. This spray liquid was sprayed on the leaf surface of the seedling of rice plant attached with planthoppers in the application amount indicated in Table 4. After air drying, the seedling of rice plant sprayed with the spray liquid was covered with a wire gauze cylinder. Three days later, the number of surviving insects was measured, and the insect killing rate (indicated as the “insect killing rate I” in Table 4) was calculated by the following equation. It means that the effect of agricultural chemical (insecticidal effect) is high as the value of the insect killing rate is high.
Insect killing rate (%)=(the number of surviving insects in non-treated area−the number of surviving insects in treated area)/the number of surviving insects in non-treated area×100

[1] = application amount 100 L/10 a, (A)+(B) concentration 1000 ppm

**Q.** What does the source list for “Monocapric acid monoglycerine [compound 7]”?
**A.** Mite killing rate (Kanzawa spider mite; [1]): 40%; Insect killing rate II (cotton aphid; [1]): 57%; Insect killing rate I (planthopper; [1]): 46%

**Q.** Which results are given for Octyl alcohol [compound 22]?
**A.** Mite killing rate (Kanzawa spider mite; 100 L/10 a, 2000 ppm): 22%; Insect killing rate II (cotton aphid; 100 L/10 a, 2000 ppm): 34%; Insect killing rate I (planthopper; 100 L/10 a, 2000 ppm): 24%
